Test results from patent US7465848B2, “Zebrafish assay” (priority 2002, dated 2008).
Blank lines part the entries; values can stand above or below the molecule they belong to.

Legend:
zebrafish = details: for effect on zebrafish heart rate (bradycardia) in the initial screen: compound added to medium at 48 hpf, 1, 10, 100 mcg/ml, highest non-lethal concentration, ventricular rate
Protocol: TubingenAB zebrafish embryos were reared in E3 Media (5 mM NaCl, 0.17 mM KCl, 0.33 mM MgCl2, 0.33 mM CaCl2). At 24 hours post fertilization (hpf) the embryos were distributed into 96 well plates, 3-5 embryos per well with […] of E3 supplemented with phenylthiourea at 0.03 g/l to inhibit pigmentation.
DMSO alone was used as a control. HR measurement: 15 second video recordings were obtained from each well using a Nikon TE200 microscope fitted with a computer controlled stage, and a Hamamatsu ORCA-ER camera. One hundred twenty-eight frames with an exposure time of 90 ms were recorded for each video. Digital movies were taken for each well, one from each quadrant. These video clips were stored digitally.
Offline analysis was performed with commercially available imaging software (Metamorph Software, Universal Imaging). The average pixel density was measured for a region of interest over the heart, and these densities were plotted against time. […] The frequency spectrum was plotted and the peak was reported in a spreadsheet. Manual review of both time domain and frequency domain data as well as the peak frequency was performed to ensure the validity of the data. Fast-Fourier Transform was performed to determine HR. […] Each compound was tested at 1, 10, and 100 mcg/ml and the highest, non-lethal concentration chosen for HR effect. A two-tailed Student's t-test was performed to determine statistical significance.

zebrafish KCNH2 = assay: Zebrafish KCNH2 knock-down with antisense morpholino, heart rate; assay type: in vivo, Danio rerio; details: about 5 nL injected at the single cell stage
Protocol: Approximately 5 nL of the morpholino antisense oligonucleotide diluted in Danieau's solution at the concentrations shown were injected into the zebrafish embryo at the single cell stage. The zebrafish KCNH2 morpholino was directed against the splice donor site of the sixth exon of the zebrafish KCNH2 ortholog (5′-[…]-3′; SEQ ID NO:2).

Molecule: COc1cc(N)c(Cl)cc1C(=O)NC1CCN(CCCOc2ccc(F)cc2)CC1OC (centres unmarked) [cisapride]
change of ED50 on HR for cisapride with increasing doses of erythromycin (zebrafish; cisapride in combination with erythromycin (FIG. 2C)): ten-fold decrease

Molecule: N=C(N)c1ccc(OCCCCCOc2ccc(C(=N)N)cc2)cc1 [pentamadine]
effect on zebrafish heart rate (bradycardia) in the initial screen (zebrafish): failed to cause bradycardia

absorption into the zebrafish embryo (zebrafish; in vivo): is absorbed
Molecule: CC[C@H]1OC(=O)[C@H](C)[C@@H](O[C@H]2C[C@@](C)(OC)[C@@H](O)[C@H](C)O2)[C@H](C)[C@@H](O[C@@H]2O[C@H](C)C[C@H](N(C)C)[C@H]2O)[C@](C)(O)C[C@@H](C)C(=O)[C@H](C)[C@@H](O)[C@]1(C)O [erythromycin]

drug-drug interaction on HR, ketoconazole and terfenadine (zebrafish; in vivo): faithfully reproduced
Molecule: CC(=O)N1CCN(c2ccc(OCC3COC(Cn4ccnc4)(c4ccc(Cl)cc4Cl)O3)cc2)CC1 (centres unmarked) [ketoconazole]

Molecule: CN/C(=N/CCSCc1nc[nH]c1C)NC#N [cimetidine]
drug-drug interaction on HR, cimetidine and terfenadine (zebrafish; in vivo): interaction of cimetidine and terfenadine

Molecule: 5′-CCGTCGTACAGGCATGTTGTCCTA-3′ (all phosphorodiamidate morpholino (PMO)) [antisense morpholino]
effect of KCNH2 antisense morpholino on zebrafish heart rate (zebrafish KCNH2): elicited bradycardia in a dose-dependent manner | effect of KCNH2 antisense morpholino on zebrafish heart rate (zebrafish KCNH2; listed as antisense morpholino oligonucleotides directed against zebrafish KCNH2): dose-dependent effect on HR

Molecule: CCN(CC)CCNC(=O)c1ccc(NC(C)=O)cc1 [N-acetyl-procainamide]
effect on zebrafish heart rate (bradycardia) in the initial screen (zebrafish): failed to cause bradycardia
